# In patent US20240174603A1 (Rappta Therapeutics Oy, priority 2021, published 2024):
# Test system: LNCaP cells
# Assay: LNCaP cell viability assay (MTS)
# Format: cell-based
# Conditions: Homo sapiens, LNCaP cell line, 48 hours
# Summary of the method: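 GI50 derived by nonlinear four-parameter curve fitting (bottom fixed at zero) of MTS viability data. Prostate LNCaP cells seeded at 5000/well were given compound doses from 1 to 80 µM one day after plating and assayed after 48 h of exposure.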
row,SMILES,GI50
1,"CN(C)CC(NS(=O)(=O)c1ccc(OC(F)(F)F)nc1)c1ccc(Cl)c(Cl)c1 (stereo not drawn) [Compound 157, N-(1-(3,4-dichlorophenyl)-2-(dimethylamino)ethyl)-6-(trifluoromethoxy)pyridine-3-sulfonamide]",17.7 µM

# Same assay, conditions: Homo sapiens, LNCaP, 48 h, LNCaP cell line
row,SMILES,GI50
1,"COC(=O)C[C@H](NS(=O)(=O)c1ccc(OC(F)(F)F)cc1)c1cc(Cl)cc(Cl)c1 [Compound 39, Methyl (S)-3-(3,5-dichlorophenyl)-3-((4-(trifluoromethoxy)phenyl)sulfonamido)propanoate]",35.3 µM
2,"CN(C)CC(NS(=O)(=O)c1ccc(OC2CCC2)cc1)c1ccc(Cl)c(Cl)c1 (stereo not drawn) [Compound 248, 4-cyclobutoxy-N-(1-(3,4-dichlorophenyl)-2-(dimethylamino)ethyl)benzenesulfonamide]",16.4 µM
3,"CC(C)CC(NS(=O)(=O)c1ccc(OC(F)(F)F)cc1)c1cccc(C#N)c1 (stereo not drawn) [Compound 26, N-(1-(3-cyanophenyl)-3-methylbutyl)-4-(trifluoromethoxy)benzenesulfonamide]",28.9 µM
4,"Cc1ccccc1C(CN(C)C)NS(=O)(=O)c1ccc(OC(F)(F)F)cc1 (stereo not drawn) [Compound 150, N-(2-(dimethylamino)-1-(o-tolyl)ethyl)-4-(trifluoromethoxy)benzenesulfonamide]",59.6 µM
5,"Cc1ccccc1C(NS(=O)(=O)c1ccc(OC(F)(F)F)cc1)C1CCCC(C)C1 (stereo not drawn) [Compound 102, N-((3-methylcyclohexyl)(o-tolyl)methyl)-4-(trifluoromethoxy)benzenesulfonamide]",14 µM
6,"COC(=O)C(NS(=O)(=O)c1ccc(OC(F)(F)F)cc1)c1ccccc1Br (stereo not drawn) [Compound 92, Methyl 2-(2-bromophenyl)-2-((4-(trifluoromethoxy)phenyl)sulfonamido)acetate]",42 µM
7,"CN(C)CC(NS(=O)(=O)c1ccc(OC(F)(F)F)cc1)c1ccc(F)c(Cl)c1 (stereo not drawn) [Compound 167, N-(1-(3-chloro-4-fluorophenyl)-2-(dimethylamino)ethyl)-4-(trifluoromethoxy)benzenesulfonamide]",42.4 µM
8,"CCOC(=O)C(NS(=O)(=O)c1ccc(OC(F)(F)F)cc1)c1ccc(OC)c(Br)c1 (stereo not drawn) [Compound 16, Ethyl 2-(3-bromo-4-methoxyphenyl)-2-((4-(trifluoromethoxy)phenyl)sulfonamido)acetate]",49.7 µM
9,"O=[N+]([O-])c1ccc(S(=O)(=O)NCCNS(=O)(=O)c2ccc(OC(F)(F)F)cc2)cc1 [Compound 108, 4-nitro-N-(2-((4-(trifluoromethoxy)phenyl)sulfonamido)ethyl)benzenesulfonamide]",65 µM
10,"CCc1ccc(C(NS(=O)(=O)c2ccc(OC(F)(F)F)cc2)C(C)(C)C)o1 (stereo not drawn) [Compound 17, N-(1-(5-ethylfuran-2-yl)-2,2-dimethylpropyl)-4-(trifluoromethoxy)benzenesulfonamide]",55.6 µM
11,"CN(C)CC(NS(=O)(=O)c1ccc(OC2CCCC2)cc1)c1ccc(Cl)c(Cl)c1 (stereo not drawn) [Compound 210, 4-(cyclopentyloxy)-N-(1-(3,4-dichlorophenyl)-2-(dimethylamino)ethyl)benzenesulfonamide]",12.5 µM
12,"CN(C)C[C@H](Cc1ccc(Cl)c(Cl)c1)NS(=O)(=O)c1ccc(OC(F)(F)F)cc1 [Compound 247, (S)—N-(1-(3,4-dichlorophenyl)-3-(dimethylamino)propan-2-yl)-4-(trifluoromethoxy)benzenesulfonamide]",22.8 µM
13,CCOC(=O)CC(NS(=O)(=O)c1ccc(OC(F)(F)F)cc1)c1ccc(OCC)cc1 (stereo not drawn) [Compound 25],75.6 µM
14,"O=S(=O)(NCC1(c2ccc(Cl)c(Cl)c2)CC1)c1ccc(Oc2ccc(C(F)(F)F)cc2)cc1 [Compound 231, N-((1-(3,4-dichlorophenyl)cyclopropyl)methyl)-4-(4-(trifluoromethyl)phenoxy)benzenesulfonamide]",47.7 µM
15,"CN(C)CC(NS(=O)(=O)c1ccc(OC(F)(F)F)cc1)c1ccc(Cl)c(Cl)c1 (single isomer, unassigned) [Compound 148, N-(1-(3,4-dichlorophenyl)-2-(dimethylamino)ethyl)-4-(trifluoromethoxy)benzenesulfonamide]",12.7 µM
16,"CN(C)CC(NS(=O)(=O)c1ccc2ccccc2c1)c1ccc(Cl)c(Cl)c1 (stereo not drawn) [Compound 146, N-(1-(3,4-dichlorophenyl)-2-(dimethylamino)ethyl)naphthalene-2-sulfonamide]",23.8 µM
17,"CN(C)CC(NS(=O)(=O)c1ccc(OC(F)(F)F)cc1)c1ccc(Cl)c(F)c1 (stereo not drawn) [Compound 168, N-(1-(4-chloro-3-fluorophenyl)-2-(dimethylamino)ethyl)-4-(trifluoromethoxy)benzenesulfonamide]",24.7 µM
18,"CNCC(NS(=O)(=O)c1ccc(OC(F)(F)F)cc1)c1ccc(Cl)c(Cl)c1 (stereo not drawn) [Compound 242, N-(1-(3,4-dichlorophenyl)-2-(methylamino)ethyl)-4-(trifluoromethoxy)benzenesulfonamide]",24.1 µM
19,"CN(C)CC(NS(=O)(=O)c1ccc(OC(F)(F)F)c([N+](=O)[O-])c1)c1ccc(Cl)cc1 (stereo not drawn) [Compound 206, N-(1-(4-chlorophenyl)-2-(dimethylamino)ethyl)-3-nitro-4-(trifluoromethoxy)benzenesulfonamide]",1.77 µM

row,SMILES,GI50
1,"O=S(=O)(NCc1ccccc1COC1CCCCC1)c1ccc(OC(F)(F)F)cc1 [Compound 59, N-(2-((cyclohexyloxy)methyl)benzyl)-4-(trifluoromethoxy)benzenesulfonamide]",23 µM
2,"CCOC(=O)C(Cc1cccc(Cl)c1)NS(=O)(=O)c1ccc(OC(F)(F)F)cc1 (stereo not drawn) [Compound 15, Ethyl 3-(3-chlorophenyl)-2-((4-(trifluoromethoxy)phenyl)sulfonamido)propanoate]",49.6 µM
3,"CN(Cc1ccccc1Br)C(=O)CCNS(=O)(=O)c1ccc(OC(F)(F)F)cc1 [Compound 48, N-(2-bromobenzyl)-N-methyl-3-((4-(trifluoromethoxy)phenyl)sulfonamido)propenamide]",43 µM
4,"COc1ccc(OC)c(CCCNS(=O)(=O)c2ccc(OC(F)(F)F)cc2)c1 [Compound 27, N-(3-(2,5-dimethoxyphenyl)propyl)-4-(trifluoromethoxy)benzenesulfonamide]",40.2 µM
5,"CC(CN(C)C)NS(=O)(=O)c1ccc(OC(F)(F)F)c([N+](=O)[O-])c1 (stereo not drawn) [Compound 254, N-(1-(dimethylamino)propan-2-yl)-3-nitro-4-(trifluoromethoxy)benzenesulfonamide]",1.92 µM
6,"CN(C)CC(NS(=O)(=O)c1ccc(OC(F)(F)F)cc1)c1cccc(C(F)(F)F)c1 (stereo not drawn) [Compound 120, N-(2-(dimethylamino)-1-(3-(trifluoromethyl)phenyl)ethyl)-4-(trifluoromethoxy)benzenesulfonamide]",46.3 µM
7,"CN(C)CC(NS(=O)(=O)c1ccc(C2=CCOCC2)cc1)c1ccc(Cl)c(Cl)c1 (stereo not drawn) [Compound 216, N-(1-(3,4-dichlorophenyl)-2-(dimethylamino)ethyl)-4-(3,6-dihydro-2H-pyran-4-yl)benzenesulfonamide]",8.18 µM
8,"CCCOC1CCN(CC(NS(=O)(=O)c2ccc(OC(F)(F)F)cc2)c2ccc(Cl)c(Cl)c2)CC1 (stereo not drawn) [Compound 241, N-(1-(3,4-dichlorophenyl)-2-(4-propoxypiperidin-1-yl)ethyl)-4-(trifluoromethoxy)benzenesulfonamide]",31.9 µM
9,"CC(C)(C)OC(=O)N1CC(F)(F)CC1CNS(=O)(=O)c1ccc(OC(F)(F)F)cc1 (stereo not drawn) [Compound 65, Tert-butyl 4,4-difluoro-2-(((4-(trifluoromethoxy)phenyl)sulfonamido)methyl)pyrrolidine-1-carboxylate]",43 µM
10,"CC(C)(C)OC(=O)NC[C@H](NS(=O)(=O)c1ccc(OC(F)(F)F)cc1)c1ccccc1 [Compound 114, tert-butyl (R)-(2-phenyl-2-((4-(trifluoromethoxy)phenyl)sulfonamido)ethyl)carbamate]",42.5 µM
11,"CN(C)CC(NS(=O)(=O)c1ccc(OC(F)(F)F)cc1)c1cccc(Cl)c1 (stereo not drawn) [Compound 166, N-(1-(3-chlorophenyl)-2-(dimethylamino)ethyl)-4-(trifluoromethoxy)benzenesulfonamide]",44.5 µM
12,"O=S(=O)(NCc1ccccc1S(=O)(=O)N1CCCCC1)c1ccc(OC(F)(F)F)cc1 [Compound 2, N-(2-(piperidin-1-ylsulfonyl)benzyl)-4-(trifluoromethoxy)benzenesulfonamide]",58.3 µM
13,"O=S(=O)(NC(c1cc(Cl)cc(Cl)c1)C1CCCCC1)c1ccc(OC(F)(F)F)cc1 (single isomer, unassigned) [Compound 140, N-(cyclohexyl(3,5-dichlorophenyl)methyl)-4-(trifluoromethoxy)benzenesulfonamide]",19 µM
14,"NC[C@H](NS(=O)(=O)c1ccc(OC(F)(F)F)cc1)c1ccccc1 [Compound 116, (R)—N-(2-amino-1-phenylethyl)-4-(trifluoromethoxy)benzenesulfonamide]",51.2 µM
15,"CN(C)CC(NS(=O)(=O)c1ccc(OC(F)(F)F)cc1)c1ccc(Cl)cc1 (single isomer, unassigned) [Compound 179, N-(1-(4-chlorophenyl)-2-(dimethylamino)ethyl)-4-(trifluoromethoxy)benzenesulfonamide]",43.1 µM
16,"O=S(=O)(NCC1(c2ccc(Cl)c(Cl)c2)CCCC1)c1ccc(OC(F)(F)F)cc1 [Compound 243, N-((1-(3,4-dichlorophenyl)cyclopentyl)methyl)-4-(trifluoromethoxy)benzenesulfonamide]",51.7 µM
17,"CN(C)CC(NS(=O)(=O)c1ccc(Oc2ccccn2)cc1)c1ccc(Cl)c(Cl)c1 (stereo not drawn) [Compound 211, N-(1-(3,4-dichlorophenyl)-2-(dimethylamino)ethyl)-4-(pyridin-2-yloxy)benzenesulfonamide]",75 µM
18,"CC(C)c1ccc(C(CC(=O)O)NS(=O)(=O)c2ccc(OC(F)(F)F)cc2)cc1 (stereo not drawn) [Compound 113, 3-(4-isopropylphenyl)-3-((4-(trifluoromethoxy)phenyl)sulfonamido)propanoic acid]",66 µM

# Same assay, conditions: LNCaP cell line, 48 hours
row,SMILES,GI50
1,"CN(C)CC(NS(=O)(=O)c1ccc(OC(F)(F)F)cc1)c1cccc(C(F)(F)F)c1 (single isomer, unassigned) [Compound 178, N-(2-(dimethylamino)-1-(3-(trifluoromethyl)phenyl)ethyl)-4-(trifluoromethoxy)benzenesulfonamide]",51.2 µM
